# Test results taken from patent publication US20040214803A1, “Use of vitamin d3 analogue for the treatment of autoimmune diabetes” (priority 2001, published 2004).
# Legend:
# IL-12p75 = details: short treatment; Mattner et al. 2000; cited from earlier work
# NOD mice = details: cited from earlier work
# IL-12 = details: cited from earlier work
# [1] = test system: vascularized heart allograft; test: Vascularized heart allograft survival, C57BL/6 into BALB/c recipients; type: in vivo, mouse; details: Dose 5 (unit not given) per os 3x/w every other day from d-1 until d+30
# Excerpt: Fully vascularized hearts were grafted into the abdomen of recipient mice as described (Corry, R. J., H. J. Winn, and P. S. Russell. Primarily vascularized allografts of hearts in mice. The role of H-2D, H-2K, and non-H-2 antigens in rejection. Transplantation. 1973, 16:343). Graft survival was monitored by palpation and rejection was confirmed by direct graft inspection.
# [2] = administered to NOD mice starting from three weeks of age
smiles,measurement,setting,value
"C=C1/C(=C\C=C2/CCC[C@]3(C)[C@@H]([C@H](C)CCCC(C)(C)O)CC[C@@H]23)C[C@@H](O)C[C@@H]1O [1,25(OH)2D3, 1,25-dihydroxyvitamin D3]","LPS-induced serum levels of both cytokines (IL-12, IFN-γ)",IL-12p75,can be inhibited
same,preventing progression of diabetes,NOD mice; administered to NOD mice from 8 weeks of age,ineffective
same,incidence of insulitis,NOD mice; [2],reduces the incidence of insulitis
same,type 1 DM development,NOD mice; [2],prevents type 1 DM development
same,IL-12 production,IL-12,inhibits IL-12 production
C=C1/C(=C\C=C2/CCC[C@@]3(C)C2CCC3[C@@H](C)CCCC(C)(C)O)C[C@@H](O)C[C@@H]1O (stereo partly shown) [MC1288],incidence of disease,"NOD mice; treatment of 8 week-old NOD mice, combined or alone",neither treatment alone was effective
"C=C1/C(=C\C=C2/CCC[C@@]3(C)C2CCC3[C@H](C)CCCC(C)(C)O)C[C@@H](O)C[C@@H]1O (stereo partly shown) [Reference, reference compound]",Graft survival (days) Mean,[1],14.33 days
